“Also recorded” adds a separate entry of the source.
Assays:
[1] = test system: mouse embryonic fibroblasts (MEFs); assay: Ceramide-induced (C16:0 CER, C2-ceramide) mitochondrial fragmentation; type: cell-based; conditions: MEFs; C16:0 CER 100 μM or C2-ceramide 50 μM 3 h; 893 5 μM, mdivi-1 50 μM, M1 5 μM, leflunomide 50 μM, P110 1 μM
Method: (§1) 3T3-L1 cells were maintained in DMEM with 10% FBS and 1% penicillin-streptomycin until induced to differentiate. 3T3-L1 pre-adipocytes were differentiated as described in (M. P. Valley, et al., Anal. Biochem. 505: 43-50, 2016, the disclosure of which is incorporated herein by reference) with slight modifications. Briefly, pre-adipocytes were grown to confluence. After 2 d, cells were induced with maintenance media containing 500 μM IBMX (15879, Sigma-Aldrich, St. Louis, Mo.), 1 μM dexamethasone (D4902, Sigma-Aldrich), 5 μg/mL bovine insulin (10516, Sigma-Aldrich), and 5 μM troglitazone (50-115-0786, ApexBio). Media was changed every 2-3 d for 7 d. On day 7 post-induction, media was changed to maintenance media+5 μg/mL bovine insulin. On day 9 post-induction, media was changed to maintenance media. Mature adipocytes were used 12-14 d post-induction for all experiments. LSL-KrasG12D mouse embryonic fibroblasts (MEFs) with and without Cre-mediated deletion of the STOP cassette were obtained from David Tuveson (Cold Spring Harbor Laboratory, Cold Spring Harbor N.Y., USA) in 2000. p53^flox/flox MEFs were derived in house (2015) from C57BL/6 mice using standard techniques and immortalized by transient expression of Cre recombinase and deletion of p53. MEFs were cultured and maintained in DMEM with 10% FBS and 1% penicillin-streptomycin. A549 cells were cultured in DMEM with 10% FBS, 1% penicillin-streptomycin and 1% sodium pyruvate. Stock solution of palmitic acid (ACROS Organics, cat # AC129702500) was prepared at 100 mM in ethanol. Palmitate (250 μM) was conjugated to 1% (w/v) fatty-acid free bovine serum albumin (Sigma, A8806) in DMEM at 37° C. for 20 min. For all immunofluorescence assays, 8,000 MEFs were seeded into 8-chamber slides (Cellvis, cat # C8-1.5H-N) 12-16 h before treatment. Cells were pre-treated with sphingolipid-like compound 893 (5 μM in water), myriocin (10 μM in methanol), fumonisin-B1 (30 μM in DMSO), or celastrol (500 nM in DMSO) for 3 h followed by a 3 h treatment with BSA-conjugated palmitate mixture or BSA alone. Where cells were treated with C2-ceramide (50 μM in DMSO) or C16:0 ceramide (100 μM in ethanol) for 3 h, cells were pre-treated with sphingolipid-like compound 893 for 1-3 h as indicated, mdivi-1 (50 μM in DMSO) for 1 h or 24 h, M1 (5 μM in DMSO) for 24 h, mdivi-1 and M1 together for 24 h, leflunomide (50 μM in methanol) for 1 h or 24 h, or with P110 (1 μM in water) for 1 h or 12 h. LSL or KRAS^G12D MEFs were treated with sphingolipid-like compound 893 (5 μM) for 6 h prior to fixation.
MEFs were washed twice with PBS and fixed with 4% paraformaldehyde for 10 min at RT. Cells were permeabilized with 0.3% Triton X-100 in blocking buffer containing 10% fetal bovine serum for 20 min at 37° C. followed by overnight incubation with mouse anti-citrate synthase (sc-390693, Santa Cruz Biotechnology; dilution, 1:200) or rabbit-anti-DRP1 at 1:100 (#8570, Cell Signaling Technology) at 4° C. Cells were then washed twice with PBS and incubated with AlexaFluor 488 goat anti-mouse (A28175, Invitrogen) or AlexaFluor 594 donkey anti-rabbit (A32754, Invitrogen) secondary antibodies at RT followed by 5 min incubation with 1 μg/ml DAPI and 2 washes in PBS. For NADH autofluorescence studies, mice were gavaged with vehicle or 120 mg/kg sphingolipid-like compound 893 at ZT8.5 (4-10.5 h before sacrifice between ZT12.5 and ZT18). Post sacrifice, livers were excised, washed 3× with PBS, placed in DMEM supplemented with 10% FBS and 1% penicillin-streptomycin, and immediately imaged. NADH/NADPH autofluorescence was detected with 740 nm excitation and 450±50 nm detectors using a Mai Tai two-photon laser. Fluorescence microscopy was performed on a Zeiss LSM 780 confocal using a 63× oil objective with a […] numerical aperture (NA) or using a Nikon TE2000-S inverted epifluorescence microscope with a 100× oil objective (1.3 NA) and a Photometrics CoolSNAP ES2 monochrome CCD camera. […]

[2] = test system: A549 lung cancer cells; assay: KRAS-mediated mitochondrial fission in A549 cells; type: cell-based, human; conditions: A549, oncogenic KRAS; 893 5 μM 1 h, leflunomide 50 μM 24 h
Method: as §1, with “Where cells were treated with C2-ceramide (50 μM in DMSO) or C16:0 ceramide (100 μM in ethanol) for 3 h, cells were pre-treated with sphingolipid-like compound 893 for 1-3 h as indicated, mdivi-1 (50 μM in DMSO) for 1 h or 24 h, M1 (5 μM in DMSO) for 24 h, mdivi-1 and M1 together for 24 h, leflunomide (50 μM in methanol) for 1 h or 24 h, or with P110 (1 μM in water) for 1 h or 12 h. LSL or KRAS^G12D MEFs were treated with sphingolipid-like compound 893 (5 μM) for 6 h prior to fixation.” left out
MEFs were washed twice with PBS and fixed with 4% paraformaldehyde for 10 min at RT. […] NADH/NADPH autofluorescence was detected with 740 nm excitation and 450±50 nm detectors using a Mai Tai two-photon laser. Fluorescence microscopy was performed on a Zeiss LSM 780 confocal using a 63× oil objective with a […] numerical aperture (NA) or using a Nikon TE2000-S inverted epifluorescence microscope with a 100× oil objective (1.3 NA) and a Photometrics CoolSNAP ES2 monochrome CCD camera. […]

[3] = test system: mouse embryonic fibroblasts (MEFs); type: cell-based; conditions: 3 h pre-treatment then palmitate 250 μM 3 h, 893 5 μM, myriocin 10 μM, fumonisin B1 30 μM, NAV-2729 12.5 μM, YM201636 800 nM, celastrol 500 nM
Method: Mitochondrial morphology was assessed by examining citrate synthesis expression under a high resolution microscopy. Specifically, the aspect ratio, branch length and roundness of mitochondria was assessed (FIG. 1).
LSL-KrasG12D mouse embryonic fibroblasts (MEFs) with and without Cre-mediated deletion of the STOP cassette were obtained from David Tuveson (Cold Spring Harbor Laboratory, Cold Spring Harbor N.Y., USA) in 2000. p53^flox/flox MEFs were derived in house (2015) from C57BL/6 mice using standard techniques and immortalized by transient expression of Cre recombinase and deletion of p53. MEFs were cultured and maintained in DMEM with 10% FBS and 1% penicillin-streptomycin. […] Stock solution of palmitic acid (ACROS Organics, cat # AC129702500) was prepared at 100 mM in ethanol. Palmitate (250 μM) was conjugated to 1% (w/v) fatty-acid free bovine serum albumin (Sigma, A8806) in DMEM at 37° C. for 20 min. For all immunofluorescence assays, 8,000 MEFs were seeded into 8-chamber slides (Cellvis, cat # C8-1.5H-N) 12-16 h before treatment. Cells were pre-treated with sphingolipid-like compound 893 (5 μM in water), myriocin (10 μM in methanol), fumonisin-B1 (30 μM in DMSO), or celastrol (500 nM in DMSO) for 3 h followed by a 3 h treatment with BSA-conjugated palmitate mixture or BSA alone.

[4] = test system: C16:0 ceramide generation (CerS6); assay: C16:0 ceramide levels in palmitate-treated MEFs (UPLC-MS/MS); type: cell-based, mouse; conditions: MEFs; 3 h pre-treatment (893 5 μM, myriocin 10 μM, fumonisin B1 30 μM) then palmitate 250 μM 3 h
Method: Plasma pharmacokinetic analysis of sphingolipid-like compound 893 was performed by Pharmaron Corporation (Beijing, China). C16:0 ceramide levels were quantified in cells using the method described in (T. Kasumov, et al., Anal. Biochem. 401: 154-161, 2010, the disclosure of which is incorporated herein by reference) with minor modifications. Cultured cells were washed twice in PBS and scraped into 250 μL of HPLC grade water and flash frozen until time of analysis. On the day of analysis, samples were thawed, and an aliquot used for protein quantification. For C16:0 ceramide levels in mouse liver, 25 mg of tissue was homogenized in 1 ml of ice-cold PBS using a mechanical probe homogenizer (VWR, Radnor, Pa.), protein levels quantified, and 50 μl of the homogenate diluted with 150 μl HPLC-grade water for C16:0 ceramide analysis. Fifty ng of C17:0 ceramide prepared in ethanol (#22532, Cayman Chemical, Ann Arbor, Mich.) was added into 200 μL of the thawed cell suspension or liver homogenate as an internal standard to control for varying extraction efficiency; 750 μL of an ice-cold 1:2 chloroform/methanol mixture was then added. Samples were sonicated for 30 min and phase separation induced by the addition of 250 μL each of chloroform and HPLC-grade water. Samples were centrifuged at 4° C. for 10 min and the lower lipid phase transferred to a clean tube. The remaining protein and aqueous layers were re-extracted with an additional 500 μL of chloroform. Lipid phases were combined and then dried under vacuum. Dried extract was re-constituted in 100% acetonitrile immediately before analysis. Samples were analyzed by ultra-performance liquid chromatography tandem mass spectrometry (UPLC-MS/MS) using a Waters Micromass Quattro Premier XE equipped with a Waters ACQUITY BEH C4 column (Waters Corp.). Samples were resolved starting at 60% mobile phase A (10 mM ammonium acetate and 0.05% formic acid in water) to 98% mobile phase B (60:40 acetonitrile:isopropanol) over 3 min with a linear gradient, held at 98% B for 1 min, then the column was equilibrated with 60% A for 1 min. The mass spectrometer was operated in positive ion mode with the following parameters: cone voltage 20 V, source temperature 125° C., desolvation temperature 400° C. Ion transition channels for MS/MS were 538→264 for C16:0 ceramide and 552→264 for C17:0 ceramide, both with a dwell time of 285 ms. Standard curves prepared from C16:0 ceramide (#860516, Avanti Polar Lipids, Alabaster, Ala.) dissolved in ethanol were used for quantitation and were linear from 4.1 nM-1,000 nM, with an R^2 of 0.98 or greater.
3T3-L1 cells were maintained in DMEM with 10% FBS and 1% penicillin-streptomycin until induced to differentiate. […]

Molecule | Protection from ceramide-induced mitochondrial fragmentation [1] | Reversal of mitochondrial fragmentation / tubularity in A549 cells [2] | Protection from palmitate-induced mitochondrial fragmentation (aspect ratio, branch length, roundness) [3] | Palmitate-induced C16:0 ceramide production [4]
CC(=NNc1c(Cl)cc(Cl)cc1Cl)c1cc(Cl)ccc1O [M1] | neither compound alone or in combination prevented ceramide- or KRAS-induced mitochondrial fragmentation | – | – | –
CCCC[C@@H](C)[C@@H](OC(=O)C[C@@H](CC(=O)O)C(=O)O)[C@H](C[C@@H](C)C[C@H](O)CCCC[C@@H](O)C[C@H](O)[C@H](C)N)OC(=O)C[C@@H](CC(=O)O)C(=O)O [fumonisin B1] | – | did not increase mitochondrial tubularity in A549 cells | prevented palmitate-induced morphological changes | Blocking ceramide production
COc1cc(-n2c(=S)[nH]c3ccccc3c2=O)c(Cl)cc1Cl [mdivi-1] | failed to prevent C16:0 ceramide-induced mitochondrial fragmentation; also recorded: neither compound alone or in combination prevented ceramide- or KRAS-induced mitochondrial fragmentation | – | – | –
CCCCCCC(=O)CCCCCC/C=C/C[C@@H](O)[C@H](O)[C@@](N)(CO)C(=O)O [myriocin] | – | did not increase mitochondrial tubularity in A549 cells | prevented palmitate-induced morphological changes | Blocking ceramide production
NAV-2729 | – | – | partial protection from palmitate-induced mitochondrial fragmentation | –
